The target of one experiment is T1, human CB2 receptors (Homo sapiens, UniProt P34972).
T1 construct: expressed in transfected cells; membrane preparation
The experiment in a line: human CB2 radioligand binding assay. As for the experimental part: (§1) (i) In Vitro Methods—CB2 and CB1 Radioligand Binding Assays:
(§2) The CB1 and CB2 radioligand binding assays described herein are utilized to ascertain the selectivity of compounds of the present application for binding to CB2 relative to CB1 receptors.
(§3) HEK293 cells stably expressing human CB2 receptors were grown until a confluent monolayer was formed. Briefly, the cells were harvested and homogenized in TE buffer (50 mM Tris-HCl, 1 mM MgCl2, and 1 mM EDTA) using a polytron for 2×10 second bursts in the presence of protease inhibitors, followed by centrifugation at 45,000×g for 20 minutes. The final membrane pellet was re-homogenized in storage buffer (50 mM Tris-HCl, 1 mM MgCl2, and 1 mM EDTA and 10% sucrose) and frozen at −78° C. until used. Saturation binding reactions were initiated by the addition of membrane preparation (protein concentration of 5 μg/well for human CB2) into wells of a deep well plate containing [^3H]CP-55,940 (120 Ci/mmol, a nonselective CB agonist commercially available from Tocris) in assay buffer (50 mM Tris, 2.5 mM EDTA, 5 mM MgCl2, and 0.5 mg/mL fatty acid free BSA, pH 7.4). After 90 min incubation at 30° C., binding reaction was terminated by the addition of 300 μL/well of cold assay buffer followed by rapid vacuum filtration through a UniFilter-96 GF/C filter plates (pre-soaked in 1 mg/mL BSA for 2 hours). The bound activity was counted in a TopCount using Microscint-20. Saturation experiments were conducted with twelve concentrations of [^3H]CP-55,940 ranging from 0.01 to 8 nM. Competition experiments were conducted with 0.5 nM [^3H]CP-55,940 and five concentrations (0.01 nM to 10 μM) of displacing ligands. The addition of 10 μM unlabeled CP-55,940 (Tocris, Ellisville, Mo.) was used to assess nonspecific binding.

The target in the next experiment is T2, rat CB2 receptors (Rattus norvegicus, UniProt Q9QZN9).
T2 construct: expressed in transfected cells; membrane preparation
T2 sequence (Q9QZN9 1-360): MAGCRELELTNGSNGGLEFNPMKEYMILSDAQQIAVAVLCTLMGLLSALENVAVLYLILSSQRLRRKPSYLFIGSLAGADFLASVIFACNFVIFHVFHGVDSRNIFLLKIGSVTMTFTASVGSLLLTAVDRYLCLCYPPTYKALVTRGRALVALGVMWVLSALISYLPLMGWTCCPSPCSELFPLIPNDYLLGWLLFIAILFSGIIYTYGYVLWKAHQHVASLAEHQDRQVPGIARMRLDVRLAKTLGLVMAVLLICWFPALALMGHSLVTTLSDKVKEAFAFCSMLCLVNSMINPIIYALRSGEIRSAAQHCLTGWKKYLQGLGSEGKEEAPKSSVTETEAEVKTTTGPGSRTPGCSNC
The experiment in a line: rat CB2 radioligand binding assay. On the procedure: as §1, §2
as §3, with “expressing rat” for “expressing human”, “of 20” for “of 5”, “for rat” for “for human”, “After 45” for “After 90”, “concentrations of displacing ligands selected from the range of 0.01” for “concentrations (0.01”, “10 μM.” for “10 μM) of displacing ligands.”

[1] abbreviates: competition with 0.5 nM [3H]CP-55,940, HEK293 membranes expressing human CB2, read-out: human CB2 binding (Ki).
Setting [2] is: competition with 0.5 nM [3H]CP-55,940, HEK293 membranes expressing rat CB2, read-out: rat CB2 binding (Ki).

pKi: −log10 of the molar value. Read-outs that look alike come from different tables or passages of the source.

T1 sequence (P34972 whole entry): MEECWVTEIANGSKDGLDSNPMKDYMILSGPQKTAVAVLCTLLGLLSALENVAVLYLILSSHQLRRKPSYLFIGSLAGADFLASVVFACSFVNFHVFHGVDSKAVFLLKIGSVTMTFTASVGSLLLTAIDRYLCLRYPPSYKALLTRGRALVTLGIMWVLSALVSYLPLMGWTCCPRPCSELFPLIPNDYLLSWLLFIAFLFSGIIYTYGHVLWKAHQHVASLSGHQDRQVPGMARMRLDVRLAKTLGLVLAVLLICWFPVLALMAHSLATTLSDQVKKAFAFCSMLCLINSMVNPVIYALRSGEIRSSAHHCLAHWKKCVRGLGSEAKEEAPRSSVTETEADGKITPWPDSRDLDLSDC

One may read the pKi as the negative decadic logarithm of the Ki, by convention in mol/L. As for `CCCn1/c(=N/C(=O)c2cc(C(F)(F)F)ccc2/C=C/C(C)(C)O)cc(C(C)(C)C)n1C` [Example 5, N-[(3E)-5-tert-butyl-1-methyl-2-propyl-1,2-dihydro-3H-pyrazol-3-ylidene]-2-[(1E)-3-hydroxy-3-methylbut-1-enyl]-5-(trifluoromethyl)benzamide], the values for the pKi at human CB2 receptors and on rat CB2 receptors were 6.56 and 7.05, respectively.

In the case of `COCCCn1/c(=N/C(=O)c2cc(C(F)(F)F)ccc2/C=C/C(C)(C)O)cc(C(C)(C)C)n1C` [Example 14, N-[(3E)-5-tert-butyl-2-(3-methoxypropyl)-1-methyl-1,2-dihydro-3H-pyrazol-3-ylidene]-2-[(1E)-3-hydroxy-3-methylbut-1-enyl]-5-(trifluoromethyl)benzamide], the pKi on human CB2 receptors (setting [1]) was 6.95; on rat CB2 receptors, 7.51.

Regarding `CCCCn1nc(C(C)(C)C)s/c1=N\C(=O)c1cc(C(F)(F)F)ccc1CN1CC(C)(O)C1` [Example 17, N-[(2Z)-3-butyl-5-tert-butyl-1,3,4-thiadiazol-2(3H)-ylidene]-2-[(3-hydroxy-3-methylazetidin-1-yl)methyl]-5-(trifluoromethyl)benzamide], the pKi is 8.23 on human CB2 receptors and 8.84 at rat CB2 receptors.

On to `Cn1c(C(C)(C)C)c/c(=N\C(=O)c2cc(C(F)(F)F)ccc2CN2CC(O)C2)n1CC1CC1` [Example 9, N-[(3E)-5-tert-butyl-2-(cyclopropylmethyl)-1-methyl-1,2-dihydro-3H-pyrazol-3-ylidene]-2-[(3-hydroxyazetidin-1-yl)methyl]-5-(trifluoromethyl)benzamide], for which the negative-log Ki (pKi) at human CB2 receptors was 7.52; on rat CB2 receptors it was 7.61.

For the molecule `Cn1c(C(C)(C)C)c/c(=N\C(=O)c2cc(C(F)(F)F)ccc2/C=C/C(C)(C)O)n1CC1CCC1` [Example 6, N-[(3E)-5-tert-butyl-2-(cyclobutylmethyl)-1-methyl-1,2-dihydro-3H-pyrazol-3-ylidene]-2-[(1E)-3-hydroxy-3-methylbut-1-enyl]-5-(trifluoromethyl)benzamide], the figures for the pKi on human CB2 receptors and on rat CB2 receptors were 7.96 and 8.48, respectively.

For the molecule `CCCCn1nc(C(C)(C)C)s/c1=N\C(=O)c1cc(C(F)(F)F)ccc1CN1CC(O)C1` [Example 16, N-[(2Z)-3-butyl-5-tert-butyl-1,3,4-thiadiazol-2(3H)-ylidene]-2-[(3-hydroxyazetidin-1-yl)methyl]-5-(trifluoromethyl)benzamide], the negative logarithm of the Ki (pKi) is 8.79 on human CB2 receptors and 9.10 on rat CB2 receptors.

On to `CCCCn1/c(=N/C(=O)c2cc(C(F)(F)F)ccc2CCC(=O)OCC)cc(C(C)(C)C)n1C` [Example 11, ethyl 3-[2-({[(3E)-2-butyl-5-tert-butyl-1-methyl-1,2-dihydro-3H-pyrazol-3-ylidene]amino}carbonyl)-4-(trifluoromethyl)phenyl]propanoate], for which the negative logarithm of the Ki (pKi) at human CB2 receptors is 7.27; on rat CB2 receptors, 7.49.

In the case of `CCCCn1nc(C(C)(C)C)s/c1=N\C(=O)c1cc(C(F)(F)F)ccc1CN1CC[C@@H](O)C1` [Example 19, N-[(2Z)-3-butyl-5-tert-butyl-1,3,4-thiadiazol-2(3H)-ylidene]-2-{[(3R)-3-hydroxypyrrolidin-1-yl]methyl}-5-(trifluoromethyl)benzamide], the negative logarithm of the Ki (pKi) on human CB2 receptors was 7.81; at rat CB2 receptors it was 8.41.

With `CCCCCn1/c(=N/C(=O)c2cc(C(F)(F)F)ccc2CCC(C)(C)O)cc(C(C)(C)C)n1C` [Example 2, N-[(3E)-5-tert-butyl-1-methyl-2-pentyl-1,2-dihydro-3H-pyrazol-3-ylidene]-2-(3-hydroxy-3-methylbutyl)-5-(trifluoromethyl)benzamide], the pKi at human CB2 receptors is 7.49; on rat CB2 receptors, 7.60.

Turning to `CCCCn1nc(C(C)(C)C)s/c1=N\C(=O)c1cc(C(F)(F)F)ccc1CN1CC[C@H](O)C1` [Example 18, N-[(2Z)-3-butyl-5-tert-butyl-1,3,4-thiadiazol-2(3H)-ylidene]-2-{[(3S)-3-hydroxypyrrolidin-1-yl]methyl}-5-(trifluoromethyl)benzamide], the pKi was 7.83 at human CB2 receptors and 8.80 at rat CB2 receptors.

As for `CCCCn1/c(=N/C(=O)c2cc(C(F)(F)F)ccc2COCC(C)(C)O)cc(C(C)(C)C)n1C` [Example 25, N-[(3E)-2-butyl-5-tert-butyl-1-methyl-1,2-dihydro-3H-pyrazol-3-ylidene]-2-[(2-hydroxy-2-methylpropoxy)methyl]-5-(trifluoromethyl)benzamide], the negative logarithm of the Ki (pKi) was 7.60 on human CB2 receptors and 7.75 at rat CB2 receptors.

In the case of `CCCCn1/c(=N/C(=O)c2cc(C(F)(F)F)ccc2CCC(C)(C)O)cc(C(C)(C)C)n1C` [Example 1, N-[(3E)-2-butyl-5-tert-butyl-1-methyl-1,2-dihydro-3H-pyrazol-3-ylidene]-2-(3-hydroxy-3-methylbutyl)-5-(trifluoromethyl)benzamide], the negative-log Ki (pKi) at human CB2 receptors (setting [1]) is 6.88; at rat CB2 receptors (setting [2]), 6.99.

In the case of `Cn1c(C(C)(C)C)c/c(=N\C(=O)c2cc(C(F)(F)F)ccc2CCC(C)(C)O)n1CC1CC1` [Example 4, N-[(3E)-5-tert-butyl-2-(cyclopropylmethyl)-1-methyl-1,2-dihydro-3H-pyrazol-3-ylidene]-2-(3-hydroxy-3-methylbutyl)-5-(trifluoromethyl)benzamide], the results for the pKi at human CB2 receptors and on rat CB2 receptors were 6.82 and 6.92, respectively.

Turning to `COCCCn1/c(=N/C(=O)c2cc(C(F)(F)F)ccc2CCC(C)(C)O)cc(C(C)(C)C)n1C` [Example 15, N-[(3E)-5-tert-butyl-2-(3-methoxypropyl)-1-methyl-1,2-dihydro-3H-pyrazol-3-ylidene]-2-(3-hydroxy-3-methylbutyl)-5-(trifluoromethyl)benzamide], the negative-log Ki (pKi) on rat CB2 receptors (setting [2]) is 6.66.

Consider `CCCCn1nc(C(C)(C)C)s/c1=N\C(=O)c1cc(C(F)(F)F)ccc1CO` [Example 20, N-[(2Z)-3-butyl-5-tert-butyl-1,3,4-thiadiazol-2(3H)-ylidene]-2-(hydroxymethyl)-5-(trifluoromethyl)benzamide], for which the negative logarithm of the Ki (pKi) on human CB2 receptors was 8.72; on rat CB2 receptors, 9.24.

For the molecule `CCCCn1/c(=N/C(=O)c2cc(C(F)(F)F)ccc2CN2CC(C)(O)C2)cc(C(C)(C)C)n1C` [Example 12, N-[(3E)-2-butyl-5-tert-butyl-1-methyl-1,2-dihydro-3H-pyrazol-3-ylidene]-2-[(3-hydroxy-3-methylazetidin-1-yl)methyl]-5-(trifluoromethyl)benzamide], the negative-log Ki (pKi) at human CB2 receptors (setting [1]) is 6.85; on rat CB2 receptors (setting [2]) it was 6.75.

As to `Cn1c(C(C)(C)C)c/c(=N\C(=O)c2cc(C(F)(F)F)ccc2CN2CC(C)(O)C2)n1CC1CC1` [Example 10, N-[(3E)-5-tert-butyl-2-(cyclopropylmethyl)-1-methyl-1,2-dihydro-3H-pyrazol-3-ylidene]-2-[(3-hydroxy-3-methylazetidin-1-yl)methyl]-5-(trifluoromethyl)benzamide], the figures for the negative-log Ki (pKi) at human CB2 receptors and at rat CB2 receptors were 6.73 and 6.97, respectively.

With `CCCCn1/c(=N/C(=O)c2cc(C(F)(F)F)ccc2CN2CC[C@@H](O)C2)cc(C(C)(C)C)n1C` [Example 13, N-[(3E)-2-butyl-5-tert-butyl-1-methyl-1,2-dihydro-3H-pyrazol-3-ylidene]-2-{[(3R)-3-hydroxypyrrolidin-1-yl]methyl}-5-(trifluoromethyl)benzamide], the negative-log Ki (pKi) at rat CB2 receptors (setting [2]) is 6.34.

These data come from patent publication US8288428B2, “Compounds as cannabinoid receptor ligands” (Abbott Laboratories, priority 2009, dated 2012).
